{
  "source": "patent US20200289667A1",
  "about": "“Targeting Macrophages to Modulate Electrical Conduction in the Heart” (The General Hospital Corporation, priority 2016, published 2020)",
  "assay_type_in_all_cases": "in vivo, mouse",
  "key": {"[1]": {"test_system": "AV block", "assay": "Surface ECG of Cd11b^DTR mice with AV block after intravenous drug administration", "details": "Cd11b^DTR mice with second and third degree AV block; intravenous (atropine 1 mg/kg, epinephrine 2 mg/kg, isoproterenol 20 mg/kg)", "description": "(§1) Mice were anesthetized as described above and surface ECG was recorded using subcutaneous electrodes connected to the Animal Bio amplifier and PowerLab station (AD Instruments). The ECG channel was filtered between 0.3 and 1000 Hz and analyzed using LabChart Pro software. Atropine (1 mg/kg), epinephrine (2 mg/kg) or isoproterenol (20 mg/kg) were administered intravenously, and changes were examined before and after injection."}, "[2]": {"test_system": "AV node macrophages", "assay": "Flow cytometric quantification of AV node macrophages after depletion", "description": "(§2) Mice were put into parabiosis using either C57BL/6 and Cx3cr1^GFP/+ or Cd11b^DTR and Cx3cr1^GFP/+ mice as described previously (12). Tamoxifen was given as a solution in corn oil (Sigma) to Cx3cr1^wt/CreER ChR2^fl/fl or Cx3cr1^wt/CreER Cx43^fl/fl mice by intraperitoneal injection. Animals received 5 doses of 2 mg of tamoxifen with a separation of 24 hours between doses. Cx3cr1^wt/CreER ChR2^wt/fl and Cx3cr1^wt/CreER Cx43^fl/fl mice were analyzed 2 and 7 days post-tamoxifen treatment, respectively. Macrophage depletion was achieved by a single intraperitoneal injection of diphtheria toxin (DT, 25 ng/g body weight) in Cd11b^DTR mice (12). C57BL/6 mice injected with DT were used as controls. Clodronate liposomes were kindly provided by Dr. Kory J. Lavine and contained 18 mg of clodronate per mL of liposomes. Depletion studies were performed by intraperitoneal injection of 100 μL/30 g mouse (13).\nPeripheral blood for flow cytometric analysis was collected by retro-orbital bleeding using heparinized capillary tubes (BD Diagnostics) and red blood cells were lysed with 1× red blood cell lysis buffer (BioLegend). To determine electrolyte levels, blood was collected by cardiac puncture and electrolytes were measured on serum with EasyLyte PLUS analyzer (Medica). For organ harvest, mice were perfused through the LV with 10 mL of ice-cold PBS. […]"}, "[3]": {"test_system": "AV node conduction", "assay": "AV node conduction by ECG telemetry, surface ECG and EP study after macrophage depletion", "description": "as §2\nEP studies were performed under general anaesthesia induced by administering 5% isoflurane driven by an oxygen source into an induction chamber. Anaesthesia was subsequently maintained with 1-2% isoflurane in 95% O2. For EP study, an octapolar catheter (EPR-800) was inserted into the right jugular vein and positioned in the right atrium and ventricle. Programmed electrical stimulation was performed using a standard protocol with 120 ms and 100 ms drive trains and single extrastimuli to measure function of the AV node and the conduction properties of atrial and ventricular tissue. The Wenckebach cycle length was measured by progressively faster atrial pacing rates. Retrograde (VA) conduction cycle length was measured by progressively slower ventricular pacing rates. Sinus node function was determined by measuring the sinus node recovery time (SNRT) following 30 seconds of pacing at three cycle lengths (120, 100 and 80 ms). SNRT was divided by the basic cycle length to adjust for the intrinsic heart rate.\nContinuous ambulatory ECG telemetry was performed by implanting an ETA-F10 transmitter during general anaesthesia with isoflurane. The transmitter was implanted in the abdomen and the leads were tunneled subcutaneously to the upper right and lower left chest resulting in a lead II position. Telemetry data was recorded continuously via a receiver placed under the mouse cage. Data analysis was performed using LabChart Pro software.\nas §1"}},
  "data": [
    {"molecule": "CN1[C@@H]2CC[C@H]1C[C@@H](OC(=O)C(CO)c1ccccc1)C2", "note": "(stereo partly drawn) [atropine]", "values": [
      {"measurement": "attenuation of AV block", "setting": "[1]", "value": "did not attenuate"}
    ]},
    {"molecule": "CNC[C@H](O)c1ccc(O)c(O)c1", "note": "[epinephrine]", "values": [
      {"measurement": "attenuation of AV block", "setting": "[1]", "value": "did not attenuate"}
    ]},
    {"molecule": "CC(C)NCC(O)c1ccc(O)c(O)c1", "note": "(stereo not drawn) [isoproterenol]", "values": [
      {"measurement": "attenuation of AV block", "setting": "[1]", "value": "did not attenuate"}
    ]},
    {"molecule": "diphtheria toxin [DT]", "values": [
      {"measurement": "number of AV node macrophages", "setting": "[2]; C57BL/6 control mice, three days after DT injection", "value": "did not alter"},
      {"measurement": "time of maximum depletion of AV node macrophages", "setting": "[2]; Cd11b^DTR mice, single intraperitoneal dose of 25 ng/g body weight", "value": "three"},
      {"measurement": "induction of AV block", "setting": "[3]; C57BL/6 control mice, surface ECG", "value": "did not induce AV block"},
      {"measurement": "progression of AV block", "setting": "[3]; Cd11b^DTR mice, ECG telemetry, after DT injection", "value": "progressively evolved into second and third degree AV block"},
      {"measurement": "onset of first degree AV block (all mice)", "setting": "[3]; Cd11b^DTR mice, ECG telemetry, single dose 25 ng/g", "value": "one"},
      {"measurement": "induction of AV block", "setting": "[3]; Cx3cr1^GFP/+ mice joined in parabiosis with Cd11b^DTR mice, surface ECG three days after DT", "value": "did not induce AV block"}
    ]}
  ]
}
